Like-named read-outs stand apart in the source and are kept apart here.
What was measured:
[1] = tested on: jejunum; conditions: mucosal to serosal direction, cited from earlier work
[2] = Ussing chamber drug transport across adult intestinal tissue; conditions: human
[3] = tested on: adult terminal ileum tissue; assay: as above; conditions: adult, M > S (mucosal to serosal)
[4] = Ussing chamber drug transport across pediatric intestinal tissue; conditions: human
[5] = human in vivo; cited from earlier work
[6] = adult jejunum, ref Michiba et al., 2021 [19]
[7] = Papp, estimated marginal mean ± SE, adult, M > S (mucosal to serosal), mixed model
[8] = Papp, estimated marginal mean ± SE, adult, S > M (serosal to mucosal), mixed model
[9] = Papp, mean ± SD, adult, M > S (mucosal to serosal)
[10] = Papp, mean ± SD, adult, S > M (serosal to mucosal)
[11] = Papp, estimated marginal mean ± SE, pediatric, M > S (mucosal to serosal), mixed model
[12] = Papp, estimated marginal mean ± SE, pediatric, S > M (serosal to mucosal), mixed model
[13] = Papp, mean ± SD, pediatric, M > S (mucosal to serosal)
[14] = Papp, mean ± SD, pediatric, S > M (serosal to mucosal)

Papp [2, 7] [×10⁻⁶ cm/s]	Papp [2, 8] [×10⁻⁶ cm/s]	Papp [2, 9] [×10⁻⁶ cm/s]	Papp [2, 10] [×10⁻⁶ cm/s]	Papp, mean ± SD [3]	Papp [4, 11] [×10⁻⁶ cm/s]	Papp [4, 12] [×10⁻⁶ cm/s]	Papp [4, 13] [×10⁻⁶ cm/s]	Papp [4, 14] [×10⁻⁶ cm/s]	efflux ratio [2]	Papp at 4 µM [2, 10] [×10⁻⁶ cm/s]	efflux ratio [4]	Papp at 4 µM [4, 14] [×10⁻⁶ cm/s]	SMILES	Papp [1, 6]	Papp ([1]; jejunum, ref Sjoberg et al., 2013 [17])	fraction absorbed [5] [%]
12 ± 1.28	10.3 ± 1.27	12.4 ± 6.2	10.7 ± 5.02	12.38 ± 6.15 ×10^–6 cm/s	7.98 ± 1.45	7.74 ± 1.47	7.49 ± 4.58	8.27 ± 4.7					CC(C)NCC(O)COc1cccc2ccccc12 (stereo not shown) [Propranolol]	7.8 ± 4.6 × 10^−6 cm/s		
6.32 ± 0.97	11.2 ± 0.91	6.3 ± 2.8	11.2 ± 5.49		3.8 ± 0.88	7.53 ± 1	4.73 ± 2.04	7.53 ± 3.66	2.1 ± 1	11.2 ± 5.5	1.3 ± 0.6	7.5 ± 3.7	CC(C)c1nc(N(C)S(C)(=O)=O)nc(-c2ccc(F)cc2)c1/C=C/[C@@H](O)C[C@@H](O)CC(=O)O [Rosuvastatin]	1.6 ± 0.6 × 10^−6 cm/s	7.0 ± 1.0 × 10^−6 cm/s	50

— article PMC9579398 (Clinical and Translational Science, 2022)
